Laboratory results reported in patent publication US20060069132A1, “Azolecarboxamide herbicides” (priority 2004, published 2006).
Where two headings read alike, the source gives them in different places.

Experiments:
velvetleaf = assay: Test A pre-/postemergence herbicide test; format: in vivo, Abutilon theophrasti; conditions: for pest or weed control at 500 g/ha / pest or weed control at 2000 g/ha: Abutilon theophrasti, 240 h
Procedure, shortened: (§1)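 Seeds sown in sandy loam received a preemergence directed soil spray of compound in non-phytotoxic solvent with surfactant; postemergence plants (2–10 cm, one- to two-leaf stage) were sprayed to runoff at the same time. After ~10 days in greenhouse, injury was rated visually versus untreated controls (0 = no effect, 100 = complete control).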

rice [1] = assay: Test C flooded paddy test; format: in vivo, Oryza sativa
Procedure, shortened: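 Postemergence sprays applied to plants 2 to 18 cm tall (1- to 4-leaf stage); paddy species grown to 2-leaf stage under flooding. After 12 to 14 days in greenhouse, visual rating versus untreated controls on 0–100 scale (0 no effect, 100 complete control).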

cocklebur = assay: Test C pre-/postemergence herbicide test; format: in vivo, Xanthium strumarium
Procedure, shortened: (§2)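 Seeds were planted and sprayed preemergence with test chemicals in a non-phytotoxic solvent mixture containing surfactant; postemergence treatments went onto plants 2 to 18 cm tall (1- to 4-leaf stage). After 12 to 14 days in a greenhouse, injury was rated visually against untreated controls on a 0–100 scale.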

soybean = assay: Test C pre-/postemergence herbicide test; format: in vivo, Glycine max; conditions: for Soybean plant response rating: 500 g ai/ha
Procedure, shortened: as §2

rice [2] = assay: Test B pre-/postemergence herbicide test; format: in vivo, Oryza sativa; conditions: for Rice plant response rating: Preemergence, 500 g ai/ha, scale 0 to 100
Procedure, shortened: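 Species tested were Echinochloa crus-galli, Ipomoea coccinea, Xanthium strumarium and Oryza sativa, treated both before emergence and at the 1- to 4-leaf stage; rice and barnyardgrass were also tested under flooding at 2 leaves. Greenhouse incubation lasted 13–15 days before visual 0–100 scoring.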

[3] = test system: common (oilseed) sunflower; assay: Test C pre-/postemergence herbicide test; format: in vivo, Helianthus annuus; conditions: for Plant response rating (0 = no effect, 100 = complete control), Sunflower: 62 g ai/ha; for Plant response rating (0 = no effect, 100 = complete control), Sunflower / Plant response rating, Sunflower: preemergence; for Sunflower plant response rating: Preemergence, 500 g ai/ha, scale 0 to 100, 0 no effect, 100 complete control
Procedure, shortened: as §2

common ragweed = assay: Test C pre-/postemergence herbicide test; format: in vivo, Ambrosia elatior; parameters: key to Plant response rating, Ragweed: 0 = no effect, 100 = complete control; conditions: for Ragweed plant response rating: 500 g ai/ha
Procedure, shortened: as §2

lambsquarters = assay: Test C pre-/postemergence herbicide test; format: in vivo, Chenopodium album; conditions: for Lambsquarters plant response rating: 500 g ai/ha
Procedure, shortened: as §2

morningglory = assay: Test A pre-/postemergence herbicide test; format: in vivo, Ipomoea spp.; conditions: for pest or weed control at 500 g/ha / pest or weed control at 2000 g/ha: Ipomoea, 240 h
Procedure, shortened: as §1

yellow nutsedge = assay: Test C pre-/postemergence herbicide test; format: in vivo, Cyperus esculentus; conditions: for Nutsedge, Yellow plant response rating: 500 g ai/ha
Procedure, shortened: as §2

[4] = Postemergence, 2000 g ai/ha, 0 to 100 scale, 0 no effect, 100 complete control
[5] = Preemergence, 500 g ai/ha, visual rating, 0 to 100 scale (0 no effect, 100 complete control)
[6] = Preemergence, 2000 g ai/ha, 0 to 100 scale, 0 no effect, 100 complete control
[7] = 125 g ai/ha, scale 0 (no effect) to 100 (complete control), visual, 12 to 14 days, preemergence
[8] = 250 g ai/ha, scale 0 to 100 (0 no effect, 100 complete control), visual, 12 to 14 days, preemergence
[9] = Postemergence, 250 g ai/ha, scale 0 to 100, 0 no effect, 100 complete control
[10] = postemergence, 62 g ai/ha, scale 0 to 100
[11] = Preemergence, scale 0 to 100, 0 no effect, 100 complete control

## CCNC(=O)c1cc(NC(=O)c2cc(C(C)(C)C)nn2CC)ccc1F [Compound 58]
velvetleaf; [4]
  Plant response rating, Velvetleaf: 40
velvetleaf; [5]
  Velvetleaf plant response rating: 70
velvetleaf; [6]
  Velvetleaf plant response rating: 65
Rice [1]; 62 g ai/ha, scale 0 to 100 (0 no effect, 100 complete control)
  Rice plant response rating: 0
Rice [1]; 125 g ai/ha, scale of 0 to 100, 0 is no effect, 100 is complete control
  Rice plant response rating: 35
Rice [1]; 250 g ai/ha, scale of 0 to 100, 0 is no effect, 100 is complete control
  Rice plant response rating: 35
Rice [1]; 500 g ai/ha, visual rating after 12 to 14 days, scale 0 to 100 (0 no effect, 100 complete control)
  Plant response rating, Rice: 75
cocklebur; 62 g ai/ha, preemergence
  Plant response rating (0 = no effect, 100 = complete control), Cocklebur: 0
cocklebur; [7]
  Plant response rating, Cocklebur: 5
cocklebur; [8]
  Plant response rating, Cocklebur: 10
cocklebur; Postemergence, 500 g ai/ha, scale 0 to 100
  Cocklebur plant response rating: 50
cocklebur; Postemergence, 125 g ai/ha, scale 0 to 100, 0 no effect, 100 complete control
  Plant response rating, Cocklebur: 20
cocklebur; [9]
  Plant response rating, Cocklebur: 20
cocklebur; Preemergence, 500 g ai/ha, scale 0 to 100, 0 no effect, 100 complete control
  Cocklebur plant response rating: 30
cocklebur; [10]
  Plant response rating, Cocklebur: 15
soybean; 62 g ai/ha, preemergence
  Plant response rating (0 = no effect, 100 = complete control), Soybean: 0
soybean; [7]
  Plant response rating, Soybean: 5
soybean; [8]
  Plant response rating, Soybean: 25
soybean; Postemergence, scale 0 to 100
  Soybean plant response rating: 90
soybean; [9]
  Plant response rating, Soybean: 80
soybean; [11]
  Soybean plant response rating: 40
soybean; [10]
  Plant response rating, Soybean: 15
Rice [2]
  Rice plant response rating: 80
Rice [2]; preemergence, 125 g ai/ha, 0 to 100 scale, 0 is no effect, 100 is complete control
  Plant response rating, Rice: 60
[3]
  Plant response rating (0 = no effect, 100 = complete control), Sunflower: 0
  Sunflower plant response rating: 0
[3]; 125 g ai/ha, scale 0 (no effect) to 100 (complete control), visual, 12 to 14 days
  Plant response rating, Sunflower: 0
[3]; 250 g ai/ha, scale 0 to 100 (0 no effect, 100 complete control), visual, 12 to 14 days
  Plant response rating, Sunflower: 0
Common ragweed; 62 g ai/ha, preemergence
  Plant response rating (0 = no effect, 100 = complete control), Ragweed: 60
Common ragweed; [7]
  Plant response rating, Ragweed: 85
Common ragweed; [8]
  Plant response rating, Ragweed: 100
Common ragweed; Postemergence, scale 0 to 100
  Ragweed plant response rating: 85
Common ragweed; [9]
  Plant response rating, Ragweed: 5
Common ragweed; [11]
  Ragweed plant response rating: 100
Common ragweed; [10]
  Plant response rating, Ragweed: 0
lambsquarters; 62 g ai/ha, preemergence
  Plant response rating (0 = no effect, 100 = complete control), Lambsquarters: 100
lambsquarters; [7]
  Plant response rating, Lambsquarters: 100
lambsquarters; [8]
  Plant response rating, Lambsquarters: 100
lambsquarters; Postemergence, scale 0 to 100
  Lambsquarters plant response rating: 90
lambsquarters; [9]
  Plant response rating, Lambsquarters: 90
lambsquarters; [11]
  Lambsquarters plant response rating: 100
lambsquarters; [10]
  Plant response rating, Lambsquarters: 60
morningglory; Postemergence, 500 g ai/ha, 0 to 100 scale, 0 no effect, 100 complete control
  Plant response rating, Morningglory: 10
morningglory; [4]
  Plant response rating, Morningglory: 0
morningglory; [5]
  Morningglory plant response rating: 20
morningglory; [6]
  Morningglory plant response rating: 40
Yellow nutsedge; 62 g ai/ha, preemergence
  Plant response rating (0 = no effect, 100 = complete control), Nutsedge, Yellow: 10
Yellow nutsedge; [7]
  Plant response rating, Nutsedge, Yellow: 20
Yellow nutsedge; [8]
  Plant response rating, Nutsedge, Yellow: 50
Yellow nutsedge; Postemergence, scale 0 to 100
  Nutsedge, Yellow plant response rating: 5
Yellow nutsedge; [9]
  Plant response rating, Nutsedge, Yellow: 5
Yellow nutsedge; [11]
  Nutsedge, Yellow plant response rating: 50
Yellow nutsedge; [10]
  Plant response rating, Nutsedge, Yellow: 0

## CCNC(=O)c1ccc(F)c(NC(=O)c2cc(C(C)(C)C)nn2CC)c1 [Compound 2, 3-(1,1-dimethylethyl)-1-ethyl-N-[5-[(ethylamino)carbonyl]-2-fluorophenyl]-1H-pyrazole-5-carboxamide]
velvetleaf; post-emergence, Postemergence, 500 g ai/ha, 0 to 100 scale, 0 no effect, 100 complete control, read-out: Plant response rating, Velvetleaf
  pest or weed control at 500 g/ha: 40%
velvetleaf; post-emergence, Postemergence, 2000 g ai/ha, 0 to 100 scale, 0 no effect, 100 complete control, read-out: Plant response rating, Velvetleaf
  pest or weed control at 2000 g/ha: 75%
velvetleaf; pre-emergence, Preemergence, 500 g ai/ha, visual rating, 0 to 100 scale (0 no effect, 100 complete control), read-out: Velvetleaf plant response rating
  pest or weed control at 500 g/ha: 100%
velvetleaf; pre-emergence, Preemergence, 2000 g ai/ha, 0 to 100 scale, 0 no effect, 100 complete control, read-out: Velvetleaf plant response rating
  pest or weed control at 2000 g/ha: 100%
Rice [1]; Oryza sativa, 62 g ai/ha, scale 0 to 100 (0 no effect, 100 complete control), read-out: Rice plant response rating
  plant injury at 62 g/ha: 50%
Rice [1]; Oryza sativa, 125 g ai/ha, scale of 0 to 100, 0 is no effect, 100 is complete control, read-out: Rice plant response rating
  plant injury at 125 g/ha: 50%
Rice [1]; Oryza sativa, 250 g ai/ha, visual rating after 12 to 14 days, scale 0 to 100 (0 no effect, 100 complete control), read-out: Plant response rating, Rice
  plant injury at 250 g/ha: 65%
Rice [1]; Oryza sativa, 500 g ai/ha, visual rating after 12 to 14 days, scale 0 to 100 (0 no effect, 100 complete control), read-out: Plant response rating, Rice
  plant injury at 500 g/ha: 85%
cocklebur; 62 g ai/ha, preemergence
  Plant response rating (0 = no effect, 100 = complete control), Cocklebur: 5
cocklebur; Xanthium strumarium, pre-emergence, 312 h, 125 g ai/ha, scale 0-100, read-out: Plant response rating, Cocklebur
  pest or weed control at 125 g/ha: 5%
cocklebur; Xanthium strumarium, pre-emergence, 312 h, 250 g ai/ha, scale 0 to 100 (0 no effect, 100 complete control), visual, 12 to 14 days, read-out: Plant response rating, Cocklebur
  pest or weed control at 250 g/ha: 65%
cocklebur; Xanthium strumarium, pre-emergence, 312 h, Preemergence, 500 g ai/ha, scale 0 to 100, 0 no effect, 100 complete control, read-out: Cocklebur plant response rating
  pest or weed control at 500 g/ha: 80%
soybean; 62 g ai/ha, preemergence
  Plant response rating (0 = no effect, 100 = complete control), Soybean: 30
soybean; Glycine max, pre-emergence, 250 g ai/ha, scale 0 to 100 (0 no effect, 100 complete control), visual, 12 to 14 days, read-out: Plant response rating, Soybean
  plant injury at 250 g/ha: 100%
soybean; [11]
  Soybean plant response rating: 100
Rice [2]
  Rice plant response rating: 90
[3]
  Plant response rating (0 = no effect, 100 = complete control), Sunflower: 0
  Sunflower plant response rating: 0
[3]; Helianthus annuus, pre-emergence, 250 g ai/ha, scale 0 to 100 (0 no effect, 100 complete control), visual, 12 to 14 days, read-out: Plant response rating, Sunflower
  pest or weed control at 250 g/ha: 0%
Common ragweed; 62 g ai/ha, preemergence
  Plant response rating (0 = no effect, 100 = complete control), Ragweed: 80
Common ragweed; Ambrosia artemisiifolia, pre-emergence, 250 g ai/ha, scale 0 to 100 (0 no effect, 100 complete control), visual, 12 to 14 days, read-out: Plant response rating, Ragweed
  pest or weed control at 250 g/ha: 100%
Common ragweed; [11]
  Ragweed plant response rating: 100
lambsquarters; 62 g ai/ha, preemergence
  Plant response rating (0 = no effect, 100 = complete control), Lambsquarters: 100
lambsquarters; Chenopodium album, pre-emergence, 125 g ai/ha, scale 0-100, read-out: Plant response rating, Lambsquarters
  pest or weed control at 125 g/ha: 100%
lambsquarters; Chenopodium album, pre-emergence, 250 g ai/ha, scale 0 to 100 (0 no effect, 100 complete control), visual, 12 to 14 days, read-out: Plant response rating, Lambsquarters
  pest or weed control at 250 g/ha: 100%
lambsquarters; [11]
  Lambsquarters plant response rating: 100
morningglory; post-emergence, Postemergence, 500 g ai/ha, 0 to 100 scale, 0 no effect, 100 complete control, read-out: Plant response rating, Morningglory
  pest or weed control at 500 g/ha: 45%
morningglory; post-emergence, Postemergence, 2000 g ai/ha, 0 to 100 scale, 0 no effect, 100 complete control, read-out: Plant response rating, Morningglory
  pest or weed control at 2000 g/ha: 80%
morningglory; pre-emergence, Preemergence, 500 g ai/ha, visual rating, 0 to 100 scale (0 no effect, 100 complete control), read-out: Morningglory plant response rating
  pest or weed control at 500 g/ha: 80%
morningglory; pre-emergence, Preemergence, 2000 g ai/ha, 0 to 100 scale, 0 no effect, 100 complete control, read-out: Morningglory plant response rating
  pest or weed control at 2000 g/ha: 100%
Yellow nutsedge; 62 g ai/ha, preemergence
  Plant response rating (0 = no effect, 100 = complete control), Nutsedge, Yellow: 30
Yellow nutsedge; Cyperus, pre-emergence, 250 g ai/ha, scale 0 to 100 (0 no effect, 100 complete control), visual, 12 to 14 days, read-out: Plant response rating, Nutsedge, Yellow
  pest or weed control at 250 g/ha: 90%
